Patent US20250064813A1, “STABLE LIQUID PHARMACEUTICAL FORMULATION” (GENUV Inc., priority 2022, published 2025)

Assay: In-vial stability, 2 weeks: HPLC content and total impurities
Format: physicochemical
Method: The glass vials containing the compositions prepared in Example 4-1 were stored for 2 weeks under the two conditions below, and stability study was performed.
Aliquots of the compositions in the glass vial were taken, and the content of Compound 1 and total impurities were measured with HPLC. Measurements were performed in duplicates, and the average value was reported. Impurities were quantified by percentage area relative to the main Compound 1 peak and based on Relative Response Factor (RRF) of 1.0. As a positive control, the dried powder of Compound 1 was used and tested in the same way.

CC(=O)Nc1cccc(-n2c(=O)n(C3CC3)c(=O)c3c(Nc4ccc(I)cc4F)n(C)c(=O)c(C)c32)c1 [Compound 1, N-(3-{3-Cyclopropyl-5-[(2-fluoro-4-iodophenyl)amino]-6,8-dimethyl-2,4,7-trioxo-3,4,6,7-tetrahydropyrido[4,3-d]pyrimidin-1 (2H)-yl}phenyl) acetamide]
Compound 1 Content (%) (t = 0): 100.5%
Total Impurities (%) (t = 0): 0.15%
Compound 1 Content (%) (t = 2w (40° C./75% RH)): 100.3%
Total Impurities (%) (t = 2w (40° C./75% RH)): 0.14%
